From patent US20120029187A1, “HALOALKYLSULFONANILIDE DERIVATIVE” (Nissan Chemical Industries, Ltd., priority 2009, published 2012)

What was measured:
Type in all cases: in vivo
[1] = system: transplanted rice; assay: Test Example 1: preemergence treatment under submerged conditions, effect on crop; conditions: dose 2.52 g/a
Method in brief: (§1)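 Alluvial soil flooded to 4 cm depth; barnyardgrass, bulrush and ducksalad sown and 2.5-leaf rice seedlings transplanted. Same day, water-diluted emulsifiable concentrates applied to the water surface at set doses (g/a). Kept at 25–30 °C in greenhouse; effects scored 0–5 by mortality after three weeks.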

[2] = system: water foxtail; assay: Test Example 3: herbicidal effects in soil treatment; conditions: dose 3.2 g/a
Method in brief: (§2)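 Seeds were sown in sterilized diluvial soil and covered with about 1.5 cm of soil. Compounds, formulated as emulsifiable concentrates and diluted with water, were sprayed evenly over the soil surface at set doses in g/a. Herbicidal effect was scored on a rating scale three weeks later.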

[3] = system: Italian ryegrass; assay: as above; conditions: dose 3.2 g/a
Method in brief: as §2

[4] = system: common lambsquater; assay: as above; conditions: dose 3.2 g/a
Method in brief: as §2

[5] = system: large crabgrass; assay: as above; conditions: dose 3.2 g/a
Method in brief: as §2

[6] = system: beadstraw; assay: as above; conditions: dose 3.2 g/a
Method in brief: as §2

[7] = system: redroot pigweed; assay: as above; conditions: dose 3.2 g/a
Method in brief: as §2

[8] = system: common chickweed; assay: as above; conditions: dose 3.2 g/a
Method in brief: as §2

[9] = system: velvetleaf; assay: as above; conditions: dose 3.2 g/a
Method in brief: as §2

[10] = system: giant foxtail; assay: as above; conditions: dose 3.2 g/a
Method in brief: as §2

[11] = system: barnyardgrass; assay: as above; conditions: dose 3.2 g/a
Method in brief: as §2

[12] = system: common ragweed; assay: as above; conditions: dose 3.2 g/a
Method in brief: as §2

[13] = system: water foxtail; assay: Test Example 4: herbicidal effect in foliage treatment; conditions: dose 3.2 g/a, three weeks after the application
Method in brief: (§3)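 Herbicidal effect was rated on an evaluation scale three weeks after treatment. Plants had been raised 14 days at 25 to 30° C in sterilized diluvial soil, then received foliar sprays of emulsifiable concentrate diluted in water at predetermined doses expressed as g per are.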

[14] = system: Italian ryegrass; assay: as above; conditions: dose 3.2 g/a, three weeks after the application
Method in brief: as §3

[15] = system: common lambsquater; assay: as above; conditions: dose 3.2 g/a, three weeks after the application
Method in brief: as §3

[16] = system: large crabgrass; assay: as above; conditions: dose 3.2 g/a, three weeks after the application
Method in brief: as §3

[17] = system: posumbu knotweed; assay: as above; conditions: dose 3.2 g/a, three weeks after the application
Method in brief: as §3

[18] = system: redroot pigweed; assay: as above; conditions: dose 3.2 g/a, three weeks after the application
Method in brief: as §3

[19] = system: common chickweed; assay: as above; conditions: dose 3.2 g/a, three weeks after the application
Method in brief: as §3

[20] = system: velvetleaf; assay: as above; conditions: dose 3.2 g/a, three weeks after the application
Method in brief: as §3

[21] = system: giant foxtail; assay: as above; conditions: dose 3.2 g/a, three weeks after the application
Method in brief: as §3

[22] = system: barnyardgrass; assay: as above; conditions: dose 3.2 g/a, three weeks after the application
Method in brief: as §3

[23] = system: common ragweed; assay: as above; conditions: dose 3.2 g/a, three weeks after the application
Method in brief: as §3

[24] = system: bulrush; assay: Test Example 2: herbicidal effects during the vegetation period under submerged conditions; conditions: treatment during the vegetation period under submerged conditions; dose 2.52 g/a
Method in brief: (§4)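 Barnyardgrass, bulrush and ducksalad were co-sown in alluvial soil flooded to 4 cm and grown in a greenhouse at 25 to 30° C. At the 1- or 2-leaf stage, water-diluted emulsifiable concentrates went onto the water surface at set doses (g/a). Herbicidal effect was scored three weeks later on a graded scale.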

[25] = system: barnyardgrass; assay: as above; conditions: treatment during the vegetation period under submerged conditions; dose 2.52 g/a
Method in brief: as §4

[26] = system: ducksalad; assay: as above; conditions: treatment during the vegetation period under submerged conditions; dose 2.52 g/a
Method in brief: as §4

[27] = system: bulrush; assay: Test Example 1: herbicidal effects in preemergence treatment under submerged conditions; conditions: dose 2.52 g/a
Method in brief: as §1

[28] = system: barnyardgrass; assay: as above; conditions: dose 2.52 g/a
Method in brief: as §1

[29] = system: ducksalad; assay: as above; conditions: dose 2.52 g/a
Method in brief: as §1

SMILES	a: transplanted rice, effect on crop (evaluation scale 0-5) [1]	G: water foxtail, herbicidal effect [13]	H: Italian ryegrass, herbicidal effect [14]	L: common lambsquater, herbicidal effect [15]	D: large crabgrass, herbicidal effect [16]	M: posumbu knotweed, herbicidal effect [17]	K: redroot pigweed, herbicidal effect [18]	N: common chickweed, herbicidal effect [19]	I: velvetleaf, herbicidal effect [20]	E: giant foxtail, herbicidal effect [21]	A: barnyardgrass, herbicidal effect [22]	J: common ragweed, herbicidal effect [23]	B: bulrush, herbicidal effect (evaluation scale 0-5) [24]	A: barnyardgrass, herbicidal effect (evaluation scale 0-5) [25]	C: ducksalad, herbicidal effect (evaluation scale 0-5) [26]	B: bulrush, herbicidal effect (evaluation scale 0-5) [27]	A: barnyardgrass, herbicidal effect (evaluation scale 0-5) [28]	C: ducksalad, herbicidal effect (evaluation scale 0-5) [29]	also measured
CCC(=O)N(c1ccccc1CN1C(=O)CC(C)(C)OC1C)S(=O)(=O)C(F)(F)F (stereo not shown) [II-73]	3 (mortality of at least 40% and less than 70%)	5 (mortality of 90% or above (nearly complete death))	5 (mortality of 90% or above (nearly complete death))	0 (mortality of less than 5% (almost ineffective))	4 (mortality of at least 70% and less than 90%)	4 (mortality of at least 70% and less than 90%)	0 (mortality of less than 5% (almost ineffective))	2 (mortality of at least 20% and less than 40%)	5 (mortality of 90% or above (nearly complete death))	4 (mortality of at least 70% and less than 90%)	5 (mortality of 90% or above (nearly complete death))	2 (mortality of at least 20% and less than 40%)	5 (mortality of 90% or above (nearly complete death))	5 (mortality of 90% or above (nearly complete death))	5 (mortality of 90% or above (nearly complete death))	5 (mortality of 90% or above (nearly complete death))	5 (mortality of 90% or above (nearly complete death))	5 (mortality of 90% or above (nearly complete death))	G: water foxtail, herbicidal effect (evaluation scale 0-5) [2]: 5 (mortality of 90% or above (nearly complete death)); H: Italian ryegrass, herbicidal effect (evaluation scale 0-5) [3]: 5 (mortality of 90% or above (nearly complete death)); L: common lambsquater, herbicidal effect (evaluation scale 0-5) [4]: 0 (mortality of less than 5% (almost ineffective)); D: large crabgrass, herbicidal effect (evaluation scale 0-5) [5]: 5 (mortality of 90% or above (nearly complete death)); O: beadstraw, herbicidal effect (evaluation scale 0-5) [6]: 4 (mortality of at least 70% and less than 90%); K: redroot pigweed, herbicidal effect (evaluation scale 0-5) [7]: 0 (mortality of less than 5% (almost ineffective)); N: common chickweed, herbicidal effect (evaluation scale 0-5) [8]: 0 (mortality of less than 5% (almost ineffective)); I: velvetleaf, herbicidal effect (evaluation scale 0-5) [9]: 5 (mortality of 90% or above (nearly complete death)); E: giant foxtail, herbicidal effect (evaluation scale 0-5) [10]: 5 (mortality of 90% or above (nearly complete death)); A: barnyardgrass, herbicidal effect (evaluation scale 0-5) [11]: 5 (mortality of 90% or above (nearly complete death)); J: common ragweed, herbicidal effect (evaluation scale 0-5) [12]: 3 (mortality of at least 40% and less than 70%)
CCOC(=O)N(c1ccccc1CN1COC2(CCCC2)C(Br)C1=O)S(=O)(=O)C(F)(F)F (stereo not shown) [II-77]	0 (mortality of less than 5% (almost ineffective))	5 (mortality of 90% or above (nearly complete death))	0 (mortality of less than 5% (almost ineffective))	4 (mortality of at least 70% and less than 90%)	1 (mortality of at least 5% and less than 20%)	3 (mortality of at least 40% and less than 70%)	3 (mortality of at least 40% and less than 70%)	3 (mortality of at least 40% and less than 70%)	3 (mortality of at least 40% and less than 70%)	1 (mortality of at least 5% and less than 20%)	4 (mortality of at least 70% and less than 90%)	3 (mortality of at least 40% and less than 70%)	5 (mortality of 90% or above (nearly complete death))	0 (mortality of less than 5% (almost ineffective))	4 (mortality of at least 70% and less than 90%)	5 (mortality of 90% or above (nearly complete death))	5 (mortality of 90% or above (nearly complete death))	5 (mortality of 90% or above (nearly complete death))	herbicidal effect, G: water foxtail [2]: 3 (mortality of at least 40% and less than 70%); herbicidal effect, H: Italian ryegrass [3]: 1 (mortality of at least 5% and less than 20%); herbicidal effect, L: common lambsquater [4]: 5 (mortality of 90% or above (nearly complete death)); herbicidal effect, D: large crabgrass [5]: 5 (mortality of 90% or above (nearly complete death)); herbicidal effect, O: beadstraw [6]: 0 (mortality of less than 5% (almost ineffective)); herbicidal effect, K: redroot pigweed [7]: 4 (mortality of at least 70% and less than 90%); herbicidal effect, N: common chickweed [8]: 4 (mortality of at least 70% and less than 90%); herbicidal effect, I: velvetleaf [9]: 5 (mortality of 90% or above (nearly complete death)); herbicidal effect, E: giant foxtail [10]: 1 (mortality of at least 5% and less than 20%); herbicidal effect, A: barnyardgrass [11]: 4 (mortality of at least 70% and less than 90%); herbicidal effect, J: common ragweed [12]: 0 (mortality of less than 5% (almost ineffective))
